Laboratory results from ChEMBL document CHEMBL5338753, “Stapled Peptides as Direct Inhibitors of Nrf2-sMAF Transcription Factors” (J Med Chem, 2023).
Activity calls are given as the source filed them. The rule behind the calls is not given here. Positions of bridges follow the written chain, without caps; N, C: chain ends. Non-standard residues stand in square brackets, D forms with d. Residues, ends and D or L forms follow the SMILES beside them. R5 = C=CCCC[C@@](C)(N)C(=O)O

Columns and labels:
A549 [1] = assay: Synergistic antiproliferative activity against human A549 cells assessed as cell death at 6.25 uM incubated for 72 hrs in presence of 6 uM cisplatin by MTT assay (reference value: 46%); type: functional
A549 [2] = assay: Synergistic antiproliferative activity against human A549 cells assessed as combination index at 1.563 uM incubated for 72 hrs in presence of 12 uM cisplatin by Chou-Talalay method; type: functional
A549 [3] = assay: Downregulation of GCLC mRNA level in human A549 cells at 50 uM incubated for 72 hrs by qPCR assay; type: functional, cell-based
A549 [4] = assay: Synergistic antiproliferative activity against human A549 cells assessed as combination index at 1.563 uM incubated for 72 hrs in presence of 6 uM cisplatin by Chou-Talalay method; type: functional
A549 [5] = assay: Synergistic antiproliferative activity against human A549 cells assessed as cell death at 50 uM incubated for 72 hrs in presence of 6 uM cisplatin by MTT assay (reference value: 46%); type: functional
A549 [6] = assay: Downregulation of TXN mRNA level in human A549 cells at 50 uM incubated for 72 hrs by qPCR assay; type: functional, cell-based
A549 [7] = assay: Synergistic antiproliferative activity against human A549 cells assessed as combination index at 6.25 uM incubated for 72 hrs in presence of 12 uM cisplatin by Chou-Talalay method; type: functional
A549 [8] = assay: Synergistic antiproliferative activity against human A549 cells assessed as cell death at 100 uM incubated for 72 hrs in presence of 12 uM cisplatin by MTT assay (reference value: 66%); type: functional
A549 [9] = assay: Antiproliferative activity against human A549 cells assessed as cell death at 6.25 uM incubated for 72 hrs by MTT assay relative to control; type: functional
A549 [10] = assay: Synergistic antiproliferative activity against human A549 cells assessed as cell death at 100 uM incubated for 72 hrs in presence of 6 uM cisplatin by MTT assay (reference value: 46%); type: functional
A549 [11] = assay: Antiproliferative activity against human A549 cells assessed as cell death at 3.125 uM incubated for 72 hrs by MTT assay relative to control; type: functional
NRF2-MAFG (Homo sapiens) = NRF2-MAFG (Homo sapiens) (UniProt Q16236+O15525); assay: Inhibition of human Nrf2/MafG heterodimerization expressed in Escherichia coli Rosetta (DE3) by Split-luciferase assay; settings: dose 1.56-100 µM
A549 [12] = assay: Antiproliferative activity against human A549 cells assessed as cell death at 100 uM incubated for 72 hrs by MTT assay relative to control; type: functional
A549 [13] = assay: Synergistic antiproliferative activity against human A549 cells assessed as cell death at 6.25 uM incubated for 72 hrs in presence of 12 uM cisplatin by MTT assay (reference value: 66%); type: functional
A549 [14] = assay: Synergistic antiproliferative activity against human A549 cells assessed as combination index at 50 uM incubated for 72 hrs in presence of 6 uM cisplatin by Chou-Talalay method; type: functional
A549 [15] = assay: Antiproliferative activity against human A549 cells assessed as cell death at 1.563 uM incubated for 72 hrs by MTT assay relative to control; type: functional
A549 [16] = assay: Synergistic antiproliferative activity against human A549 cells assessed as combination index at 12.5 uM incubated for 72 hrs in presence of 6 uM cisplatin by Chou-Talalay method; type: functional
A549 [17] = assay: Synergistic antiproliferative activity against human A549 cells assessed as combination index at 6.25 uM incubated for 72 hrs in presence of 6 uM cisplatin by Chou-Talalay method; type: functional
A549 [18] = assay: Synergistic antiproliferative activity against human A549 cells assessed as combination index at 25 uM incubated for 72 hrs in presence of 12 uM cisplatin by Chou-Talalay method; type: functional
A549 [19] = assay: Synergistic antiproliferative activity against human A549 cells assessed as cell death at 25 uM incubated for 72 hrs in presence of 12 uM cisplatin by MTT assay (reference value: 66%); type: functional
A549 [20] = assay: Synergistic antiproliferative activity against human A549 cells assessed as combination index at 12.5 uM incubated for 72 hrs in presence of 12 uM cisplatin by Chou-Talalay method; type: functional
A549 [21] = assay: Synergistic antiproliferative activity against human A549 cells assessed as cell death at 1.563 uM incubated for 72 hrs in presence of 12 uM cisplatin by MTT assay (reference value: 66%); type: functional
A549 [22] = assay: Downregulation of ABCC1 mRNA level in human A549 cells at 50 uM incubated for 72 hrs by qPCR assay; type: functional, cell-based
A549 [23] = assay: Synergistic antiproliferative activity against human A549 cells assessed as cell death at 1.563 uM incubated for 72 hrs in presence of 6 uM cisplatin by MTT assay (reference value: 46%); type: functional
[24] = Stability of compound assessed as proteinase K (unknown origin) mediated compound degradation at 55 uM measured upto 24 hrs by LC/MS analysis; type: ADME; settings: human
A549 [25] = assay: Antiproliferative activity against human A549 cells assessed as cell death at 50 uM incubated for 72 hrs by MTT assay relative to control; type: functional
A549 [26] = assay: Synergistic antiproliferative activity against human A549 cells assessed as combination index at 50 uM incubated for 72 hrs in presence of 12 uM cisplatin by Chou-Talalay method; type: functional
A549 [27] = assay: Downregulation of TrxR1 protein expression in human A549 cells at 25 to 50 uM incubated for 72 hrs by Western blot analysis; type: functional, cell-based; settings: dose 25-50 µM
A549 [28] = assay: Antiproliferative activity against human A549 cells assessed as cell death at 25 uM incubated for 72 hrs by MTT assay relative to control; type: functional
A549 [29] = assay: Synergistic antiproliferative activity against human A549 cells assessed as combination index at 3.125 uM incubated for 72 hrs in presence of 12 uM cisplatin by Chou-Talalay method; type: functional
[30] = Hemolytic activity against human red blood cells at 100 uM relative to control; type: toxicity, cell-based, Erythrocyte; settings: red blood cells (erythrocytes), read-out: Activity
A549 [31] = assay: Antiproliferative activity against human A549 cells assessed as cell death at 12.5 uM incubated for 72 hrs by MTT assay relative to control; type: functional
A549 [32] = assay: Synergistic antiproliferative activity against human A549 cells assessed as cell death at 12.5 uM incubated for 72 hrs in presence of 12 uM cisplatin by MTT assay (reference value: 66%); type: functional
A549 [33] = assay: Synergistic antiproliferative activity against human A549 cells assessed as combination index at 25 uM incubated for 72 hrs in presence of 6 uM cisplatin by Chou-Talalay method; type: functional
A549 [34] = assay: Synergistic antiproliferative activity against human A549 cells assessed as cell death at 50 uM incubated for 72 hrs in presence of 12 uM cisplatin by MTT assay (reference value: 66%); type: functional
Homo sapiens = species on record: Homo sapiens; assay: Inhibition of human recombinant His-MBP-tagged Nrf2/recombinant His-tagged MafG heterodimer interaction with 5' FAM-labeled ARE at 0.2 uM preincubated for 5 mins with Nrf2 under shaking condition followed by MafG addition for 5 mins further incubated with ARE and measured after 10 mins by fluorescence polarization assay; settings: time 20.0 min
A549 [35] = assay: Synergistic antiproliferative activity against human A549 cells assessed as combination index at 100 uM incubated for 72 hrs in presence of 6 uM cisplatin by Chou-Talalay method; type: functional

CC[C@H](C)[C@H](NC(C)=O)C(=O)N[C@H](C(=O)N[C@@H](CCC(=O)O)C(=O)N[C@@H](CC(C)C)C(=O)N[C@@H](CCC(=O)O)C(=O)N[C@]1(C)CCC/C=C\CCC[C@](C)(C(=O)N[C@@H](CC(C)C)C(=O)N[C@@H](CCCCN)C(=O)N[C@@H](CC(=O)O)C(=O)N[C@@H](CCC(=O)O)C(=O)N[C@@H](CCCCN)C(=O)N[C@@H](CCC(=O)O)C(N)=O)NC(=O)[C@H](CC(=O)O)NC(=O)[C@H](CC(C)C)NC(=O)[C@H](CC(=O)O)NC1=O)C(C)C (Ac-IVELE[R5]DLD[R5]LKDEKE-NH2; staple (Z) 6-10)
Activity (A549 [1]): 59%
CI (A549 [2]): 0.96
Activity (A549 [3]): Active
CI (A549 [4]): 0.89
Activity (A549 [5]): 74%
Activity (A549 [6]): Active
CI (A549 [7]): 0.57
Activity (A549 [8]): 100%
Activity (A549 [9]): 17%
Activity (A549 [10]): 76%
Activity (A549 [11]): 12%
inhibition (NRF2-MAFG (Homo sapiens)): Dose-Dependent Effect
Activity (A549 [12]): 37%
Activity (A549 [13]): 79%
CI (A549 [14]): 0.42
Activity (A549 [15]): 4%
CI (A549 [16]): 0.57
CI (A549 [17]): 0.67
CI (A549 [18]): 0.35
Activity (A549 [19]): 87%
CI (A549 [20]): 0.51
Activity (A549 [21]): 67%
Activity (A549 [22]): Active
Activity (A549 [23]): 50%
Stability [24]: Unstable
Activity (A549 [25]): 34%
CI (A549 [26]): 0.19
Activity (A549 [27]): Active
Activity (A549 [28]): 30%
CI (A549 [29]): 0.82
hemolysis at 100 µM [30]: 0.3%
Activity (A549 [31]): 24%
Activity (A549 [32]): 81%
CI (A549 [33]): 0.51
Activity (A549 [34]): 93%
inhibition (Homo sapiens): Active
CI (A549 [35]): 0.42
